Results published in US9079913B2, “Spiro-oxindole MDM2 antagonists” (The Regents of the University of Michigan, priority 2009, dated 2015).
“Also recorded” adds a separate entry of the source. Where two headings read alike, the source gives them in different places.

Key:
[1] = In vitro microsomal stability, rat; assay type: in vitro ADME
[2] = tested on: cancer cell lines with wild-type p53 / mutated or deleted p53 (ATCC); test: Cell growth assay (WST-8), other cancer cell lines; assay type: cell-based; details: for IC50: Homo sapiens
[3] = tested on: Isogenic HCT-116 colon cancer cell lines; test: cells; assay type: cell-based; details: Homo sapiens;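 also: cells grown in 96-well plates in McCoy's 5A medium with 10% FBS, exposed to compound for 4 days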
Experimental: Cells were seeded in 96-well flat bottom cell culture plates at a density of 2−3×10^3 cells/well with compounds and incubated for 4 days.

[4] = In vitro microsomal stability, human; assay type: in vitro ADME
[5] = Animal weight in SJSA-1 xenograft studies; assay type: in vivo, C.B-17 SCID mice; details: SJSA-1 xenograft mice
Experimental: The size of tumors growing in the mice was measured in two dimensions using calipers. Tumor volume (mm^3)=(A×B2)/2 where A and B are the tumor length and width (in mm), respectively. During treatment, tumor volume and body weight was measured three times a week. After the treatment was stopped, tumor volume (FIGS. 7, 9, 11, and 36) and body weight (FIGS. 8, 10, 12, and 37) was measured at least once a week. Mice were kept for an additional 60 days for further observation of tumor growth and toxicity.
Before treatment began, tumors were allowed to grow to 60-140 mm^3 in volume, at which point the blood vessel supplies to the tumor should have been established. Mice with tumors within acceptable size range were randomized into treatment groups of 8 mice for experimental compounds and 10 mice for the Control group. Experimental compounds were given orally, once per day for 2-3 weeks. The Control group received vehicle alone (10% PEG 400: 3% Cremophor: 87% PBS).

SJSA-1 xenograft tumors = test: In vivo efficacy, SJSA-1 xenograft model (tumor volume); design: species or system C.B-17 SCID mice; details: for % Tumor Growth Inhib. T/C Control 750 mm^3 D29: Exp. No. 3, SJSA-1 xenograft
[6] = Pharmacokinetic studies in rats; assay type: in vivo, rat; details: rat, IV, 5 mg/kg, plasma, parent compound
Experimental: Pharmacokinetic studies on MDM2 inhibitors were carried out in rat. For comparison, the MDM2 inhibitor, AT-219, was also studied.

[7] = LNCaP, read-out: LNCAP (p53 wild-type) IC50
[8] = SJSA-1, read-out: SJSA-1 (p53 wild-type) IC50
[9] = HCT-116, read-out: HCT-116 (p53 wild-type) IC50

CC(C)(C)C[C@H]1N[C@@H](C(=O)N[C@H]2C[C@@H](O)C2)[C@H](c2cccc(Cl)c2F)[C@@]12C(=O)Nc1cc(Cl)ccc12 (stereo in doubt) [MI-519-63]
% of compound remaining when incubated in rat liver microsomes with NADPH ([1]; 0 min): 100%
% of compound remaining when incubated in rat liver microsomes with NADPH ([1]; 5 min): 66.01%
% of compound remaining when incubated in rat liver microsomes with NADPH ([1]; 10 min): 53.79%
% of compound remaining when incubated in rat liver microsomes with NADPH ([1]; 15 min): 46.44%
% of compound remaining when incubated in rat liver microsomes with NADPH ([1]; 30 min): 29.41%
% of compound remaining when incubated in rat liver microsomes with NADPH ([1]; 45 min): 27.72%
% of compound remaining when incubated in rat liver microsomes with NADPH ([1]; 60 min): 23.28%
microsomal stability (in words) ([1]; rat liver microsomes): comparable microsomal stability to MI-219
IC50 [2, 7]: 2300 nM
IC50 [2, 8]: 2100 nM
IC50 [3, 9]: 2000 nM
% of compound remaining when incubated in human liver microsomes with NADPH ([4]; 0 min): 100.00%
% of compound remaining when incubated in human liver microsomes with NADPH ([4]; 5 min): 77.75%
% of compound remaining when incubated in human liver microsomes with NADPH ([4]; 10 min): 59.66%
% of compound remaining when incubated in human liver microsomes with NADPH ([4]; 15 min): 50.42%
% of compound remaining when incubated in human liver microsomes with NADPH ([4]; 30 min): 31.21%
% of compound remaining when incubated in human liver microsomes with NADPH ([4]; 45 min): 26.74%
% of compound remaining when incubated in human liver microsomes with NADPH ([4]; 60 min): 21.5%
microsomal stability (in words) ([4]; human liver microsomes): comparable microsomal stability to MI-219
weight loss in the animals (in words) [5]: without significant weight loss
% Tumor Growth Inhib. T/C Control 750 mm^3 D24 (SJSA-1 xenograft tumors; Exp. No. 2, SJSA-1 xenograft, PO 100 mg/kg, D24): 0.0%

CC(C)(C)C[C@H]1N[C@@H](C(=O)N[C@H]2C[C@@](C)(O)C2)[C@H](c2cccc(Cl)c2F)[C@@]12C(=O)Nc1cc(Cl)ccc12 [MI-519-64]
% of compound remaining when incubated in rat liver microsomes with NADPH ([1]; 0 min): 100%
% of compound remaining when incubated in rat liver microsomes with NADPH ([1]; 5 min): 71.95%
% of compound remaining when incubated in rat liver microsomes with NADPH ([1]; 10 min): 64.86%
% of compound remaining when incubated in rat liver microsomes with NADPH ([1]; 15 min): 48.47%
% of compound remaining when incubated in rat liver microsomes with NADPH ([1]; 30 min): 43.38%
% of compound remaining when incubated in rat liver microsomes with NADPH ([1]; 45 min): 41.19%
% of compound remaining when incubated in rat liver microsomes with NADPH ([1]; 60 min): 43.03%
cell growth inhibition (in words) [2]: more potent than its epimer MI-519-65; also recorded: effectively inhibit cancer cell growth
IC50 [2, 7]: < 1000 nM
IC50 [2, 8]: < 1000 nM
CLz [6]: 30 mL/min/kg
Vd ([6]; iv, read-out: Vz): 9 L/kg
IC50 ([3]; HCT-116, read-out: HCT-116 (p53-/-) IC50): > 10000 nM
IC50 [3, 9]: < 1000 nM
% of compound remaining when incubated in human liver microsomes with NADPH ([4]; 0 min): 100%
% of compound remaining when incubated in human liver microsomes with NADPH ([4]; 5 min): 83.66%
% of compound remaining when incubated in human liver microsomes with NADPH ([4]; 10 min): 80.61%
% of compound remaining when incubated in human liver microsomes with NADPH ([4]; 15 min): 65.86%
% of compound remaining when incubated in human liver microsomes with NADPH ([4]; 30 min): 61.26%
% of compound remaining when incubated in human liver microsomes with NADPH ([4]; 45 min): 55.9%
% of compound remaining when incubated in human liver microsomes with NADPH ([4]; 60 min): 53.21%
weight loss in the animals (in words) [5]: without significant weight loss
% Tumor Growth Inhib. T/C Control 750 mm^3 D29 (SJSA-1 xenograft tumors; PO 30 mg/kg): 20.7%
% Tumor Growth Inhib. T/C Control 750 mm^3 D29 (SJSA-1 xenograft tumors; PO 100 mg/kg): 5.3%
